Tests used:
Aromataseaktivität = molecular target: T1, Aromataseaktivität (Rattus norvegicus, UniProt P22443); assay: PMSG test: serum estradiol in PMSG-pretreated infantile female rats (radioimmunoassay); assay type: in vivo, Ratte; settings: for Östradiol-Konzentration: peripheral serum, PMSG-pretreated rat, mean ± SD, n=10
T1 construct: Infantile weibliche Ratten reagieren auf PMSG (Pregnant Mare's Serum Gonadotropin)-Behandlung mit einheitlich erhöhter Steroidsynthese; from tissue; host or cells: living infantile female rats (in vivo); serum estradiol measured by radioimmunoassay
T1 sequence (P22443 1-508): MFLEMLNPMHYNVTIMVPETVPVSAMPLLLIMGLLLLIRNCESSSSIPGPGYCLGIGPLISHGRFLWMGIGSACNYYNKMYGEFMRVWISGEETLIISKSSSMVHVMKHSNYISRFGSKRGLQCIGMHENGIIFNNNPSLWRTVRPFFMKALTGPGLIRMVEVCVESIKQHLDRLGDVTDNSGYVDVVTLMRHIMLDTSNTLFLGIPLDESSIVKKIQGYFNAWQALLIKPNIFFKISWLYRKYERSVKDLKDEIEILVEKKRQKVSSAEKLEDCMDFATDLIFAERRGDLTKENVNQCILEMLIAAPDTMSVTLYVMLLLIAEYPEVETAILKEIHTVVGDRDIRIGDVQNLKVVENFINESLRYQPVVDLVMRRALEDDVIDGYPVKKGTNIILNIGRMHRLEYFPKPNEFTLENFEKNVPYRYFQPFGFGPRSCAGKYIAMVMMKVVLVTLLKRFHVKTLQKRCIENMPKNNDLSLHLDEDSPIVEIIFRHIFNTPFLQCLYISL
Method: Infantile weibliche Ratten reagieren auf PMSG (Pregnant Mare's Serum Gonadotropin)-Behandlung mit einheitlich erhöhter Steroidsynthese. Die Aromataseaktivität kann durch die Beeinflussung der PMSG-stimulierten Ostrogenbildung gemessen werden.
Im sogenannten PMSG-Test werden 21 Tage alte weibliche Ratten alle 2 Tage insgesamt 7 mal mit je 100 I.U. PMSG subkutan vorbehandelt. 1 Stunde vor und 8 Stunden nach der letzten PMSG-Applikation (d12) erhalten die Tiere die Testsubstanz in 0,1 ml Benzylbenzoat/Rizinusöl (1+9) durch subkutane Injektion. Die Kontrolltiere erhalten nur das Vehikel. 24 Stunden nach der letzten PMSG-Applikation werden die Tiere getötet. Im Serum wird Östradiol radioimmunologisch geprüft. Für jede Gruppe von 10 Tieren wird der Mittelwert der Östradiolkonzentration in nMol/1 mit der Standardabweichung errechnet. Die Signifikanzen der Unterschiede zur Kontrollgruppe werden durch die Varianzanalyse geprüft.
Zur Ermittlung der relativen Wirkungsstärke der zu testenden Substanz im Vergleich zu der Standardsubstanz wird die Regressions- und Kovarianzanalyse durchgeführt. Ferner wird die prozentuale Hemmung gegen die PMSG-Kontrolle berechnet.

Östruszyklus der Ratte = assay: Influence of aromatase inhibitors on the estrous cycle of the rat (Allen-Doisy smear technique); assay type: in vivo, Ratten (SPF-Wistar)
Excerpt: In einem weiteren Test wird der Einfluß von Aromatasehemmern auf den Östruszyklus der Ratte bestimmt.
Die Substanzen, die die Östrogenbiosynthese bzw. die Wirkung von Östrogenen hemmen, führen zu einer Störung des Östruszyklus bei Nagern.
Verwendet werden weibliche Ratten (SPF-Wistar) von ca. 180 g Körpergewicht. Pro Gruppe werden 10 Tiere eingesetzt. Der Zyklus wird mittels der Allen-Doisy-Abstrichtechnik täglich untersucht. Es werden zwei aufeinanderfolgende Zyklen verfolgt. Nur Tiere mit einem regelmäßigen 4-Tage-Zyklus kommen in den Versuch. Am Tage des Metöstrus werden die Tiere einmal mit der Testsubstanz (20 mg/Tier) subcutan behandelt. Die Testsubstanz wird dabei in einer 0.9%igen Kochsalzlösung mit Myrj-53^(R) (0.085%) suspendiert (0,5 ml/Dosis). Die Kontrolltiere werden nicht behandelt. Der Versuch wird beendet. wenn alle behandelten Tiere wieder normale Zyklen aufweisen.

| SMILES | Östradiol-Konzentration (Aromataseaktivität; dose 0,1 mg/Tier 2 x s.c.) | Östradiol-Konzentration (Aromataseaktivität; dose 0,3 mg/Tier 2 x s.c.) | Östradiol-Konzentration (Aromataseaktivität; dose 1,0 mg/Tier 2 x s.c.) | Östradiol-Konzentration (Aromataseaktivität; dose 3,0 mg/Tier 2 x s.c.) | Dauer der Störung des Zyklus (Durchschnitt) (Östruszyklus der Ratte; single s.c. 20 mg/Tier, average) [Tage] | Zykluslänge der meisten behandelten Tiere (Östruszyklus der Ratte; single s.c. 20 mg/Tier, untreated animals regular 4-day cycle) | Wirkung auf den Zyklus (Östruszyklus der Ratte; single s.c. treatment 20 mg/Tier at metestrus, effect starts right after treatment) | Dosis, mit der eine Hemmung der Östradiol-Konzentration beobachtet wird (Aromataseaktivität; lowest dose with inhibition, given 2 x s.c.) |
| --- | --- | --- | --- | --- | --- | --- | --- | --- |
| CC(=O)O[C@@H](C)[C@H]1CC(=O)[C@@]2(C)CC[C@H]3[C@@H](CCC4=CC(=O)C=C(C)[C@@]43C)[C@H]12 [B] | 2,11 ± 0,39 nMol/l | 0,62 ± 0,13 nMol/l | 0,54 ± 0,07 nMol/l | 0,36 ± 0,06 nMol/l | – | – | – | – |
| CCCC(=O)OC(C)C1CC(=O)C2(C)CCC3C(CCC4=CC(=O)C=C(C)C43C)C12 (stereo not drawn) [C, 15a-(1S-Butyryloxy-ethyl)-1-methyl-androsta-1.4-dien-3,17-dion] | – | – | – | – | ~15 | 5-Tage-Zyklus | Störung des Zyklus | – |
| C[C@]12CCC(=O)C(O)=C1CC[C@@H]1[C@@H]2CC[C@]2(C)C(=O)CC[C@@H]12 [A, 4-Hydroxy-4-androsten-3,17-dion] | 3,98 ± 1,12 nMol/l | 3,84 ± 0,84 nMol/l | 1,94 ± 0,62 nMol/l | 0,98 ± 0,19 nMol/l | – | – | – | 1,0 mg |
